Experimental data taken from ChEMBL document CHEMBL2396549, “The discovery of BMS-457, a potent and selective CCR1 antagonist” (Bioorg Med Chem Lett, 2013).
Blank lines part the entries; values can stand above or below the compound they belong to.

How the values were obtained:
[1] = target: T1, C-C chemokine receptor type 1 (Homo sapiens, UniProt P32246); assay: Binding affinity to human CCR1
T1 sequence (P32246 whole entry): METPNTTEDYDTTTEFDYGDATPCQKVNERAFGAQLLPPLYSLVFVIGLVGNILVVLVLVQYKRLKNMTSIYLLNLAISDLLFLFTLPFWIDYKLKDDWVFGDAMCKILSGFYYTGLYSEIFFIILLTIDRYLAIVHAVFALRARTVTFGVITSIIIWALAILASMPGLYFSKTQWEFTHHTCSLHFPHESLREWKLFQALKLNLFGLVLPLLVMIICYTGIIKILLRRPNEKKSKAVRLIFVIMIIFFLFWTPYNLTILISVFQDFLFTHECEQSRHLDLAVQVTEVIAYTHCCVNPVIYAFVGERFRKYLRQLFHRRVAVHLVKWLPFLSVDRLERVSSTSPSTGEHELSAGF

[2] = species: Homo sapiens; assay: Inhibition of calcium channel (unknown origin) at 10 uM
[3] = system: Liver microsomes; assay: Metabolic stability in rat liver microsomes assessed as compound remaining; format: ADME, Microsome
[4] = target: T2, Nuclear receptor subfamily 1 group I member 2 (Homo sapiens, UniProt O75469); assay: Induction of PXR (unknown origin); settings: human
T2 sequence (O75469 whole entry): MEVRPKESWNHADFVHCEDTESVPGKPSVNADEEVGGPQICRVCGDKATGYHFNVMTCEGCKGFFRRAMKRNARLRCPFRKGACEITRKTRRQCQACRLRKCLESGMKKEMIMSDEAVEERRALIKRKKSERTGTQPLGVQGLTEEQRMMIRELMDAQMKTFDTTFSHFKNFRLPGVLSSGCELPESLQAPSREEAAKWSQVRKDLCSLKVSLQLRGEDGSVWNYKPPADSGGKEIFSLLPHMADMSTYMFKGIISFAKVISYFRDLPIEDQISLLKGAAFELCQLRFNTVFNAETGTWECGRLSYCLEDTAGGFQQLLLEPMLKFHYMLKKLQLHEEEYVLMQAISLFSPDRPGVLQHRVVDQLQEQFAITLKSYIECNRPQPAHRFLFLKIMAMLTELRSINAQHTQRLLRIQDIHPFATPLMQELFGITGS

[5] = system: Liver microsomes; assay: Metabolic stability in human liver microsomes assessed as compound remaining; format: ADME, Microsome
[6] = system: Liver; assay: Metabolic stability in mouse liver microsomes assessed as compound remaining; format: ADME, Microsome
[7] = species: Homo sapiens; assay: Inhibition of sodium channel (unknown origin) at 10 uM
[8] = Metabolic stability in monkey liver microsomes assessed as compound remaining; format: ADME, Macaca mulatta, Microsome; settings: rhesus monkey

SMILES: CC(C)[C@@H](NC(=O)c1ccccc1Cl)C(=O)N1CC[C@](O)(c2ccc(Cl)cc2)C(C)(C)C1
IC50 [1]: 6.6 nM

SMILES: CC(C)[C@@H](NC(=O)c1cccc(Cl)c1)C(=O)N1CC[C@](O)(c2ccc(Cl)cc2)C(C)(C)C1
IC50 [1]: 9.9 nM

SMILES: CC(C)[C@@H](NC(=O)Cc1ccncc1)C(=O)N1CC[C@](O)(c2ccc(Cl)cc2)C(C)(C)C1
IC50 [1]: 1.2 nM

SMILES: CC(C)CCC(=O)N[C@@H](C(=O)N1CC[C@](O)(c2ccc(Cl)cc2)C(C)(C)C1)C(C)C
IC50 [1]: 1.7 nM

SMILES: CC(C)[C@@H](NC(=O)c1ccc(Cl)cc1)C(=O)N1CC[C@@](c2ccc(Cl)cc2)(N(C)C)C(C)(C)C1
IC50 [1]: > 8330 nM

SMILES: CC(C)[C@@H](NC(=O)[C@@H]1CC[C@H](O)C1)C(=O)N1CC[C@](O)(c2ccc(Cl)cc2)C(C)(C)C1 (mixture of isomers)
inhibition [2]: -4% | Stability [3]: 75% | EC20 [4]: 5300 nM | EC60 [4]: > 50000 nM | Stability [5]: 43% | IC50 [1]: 0.8 nM | Stability [6]: 60% | inhibition [7]: 5% | Stability [8]: 22%

SMILES: CC(C)[C@@H](NC(=O)C1CCCC1)C(=O)N1CCN(c2ccc(Cl)cc2)C(C)(C)C1
IC50 [1]: 4.1 nM

SMILES: CCC(=O)N[C@@H](C(=O)N1CC[C@](O)(c2ccc(Cl)cc2)C(C)(C)C1)C(C)C
IC50 [1]: 4.5 nM

SMILES: CC(C)[C@@H](NC(=O)c1cccc(S(N)(=O)=O)c1)C(=O)N1CC[C@](O)(c2ccc(Cl)cc2)C(C)(C)C1
inhibition [2]: 31% | Stability [3]: 100% | EC20 [4]: > 50000 nM | EC60 [4]: > 50000 nM | Stability [5]: 96% | IC50 [1]: 3 nM | Stability [6]: 99% | inhibition [7]: 39% | Stability [8]: 100%

SMILES: CC(C)[C@@H](NC(=O)Cc1ccccc1)C(=O)N1CC[C@](O)(c2ccc(Cl)cc2)C(C)(C)C1
IC50 [1]: 4.1 nM

SMILES: CC(C)[C@@H](NC(=O)c1ccc(Cl)cc1)C(=O)N1CC[C@](N)(c2ccc(Cl)cc2)C(C)(C)C1
IC50 [1]: 196 nM

SMILES: CC(C)C(=O)N[C@@H](C(=O)N1CC[C@](O)(c2ccc(Cl)cc2)C(C)(C)C1)C(C)C
IC50 [1]: 4.6 nM

SMILES: CC(=O)N[C@]1(c2ccc(Cl)cc2)CCN(C(=O)[C@H](NC(=O)c2ccc(Cl)cc2)C(C)C)CC1(C)C
IC50 [1]: > 8330 nM

SMILES: CC(C)[C@@H](NC(=O)c1ccc(S(N)(=O)=O)cc1)C(=O)N1CC[C@](O)(c2ccc(Cl)cc2)C(C)(C)C1
IC50 [1]: 233 nM

The remaining lines, values ahead:

IC50 [1]: 2.9 nM
SMILES: CC(C)CC(=O)N[C@@H](C(=O)N1CC[C@](O)(c2ccc(Cl)cc2)C(C)(C)C1)C(C)C

IC50 [1]: 7.2 nM
SMILES: CC(C)[C@@H](NC(=O)c1cccnc1)C(=O)N1CC[C@](O)(c2ccc(Cl)cc2)C2(CC2)C1

IC50 [1]: 1800 nM
SMILES: CC(C)[C@@H](NC(=O)c1ccc(Cl)cc1)C(=O)N1CC[C@@](O)(c2ccc(Cl)cc2)C(C)(C)C1

IC50 [1]: 9.4 nM
SMILES: CC(C)[C@@H](NC(=O)Cc1ccncc1)C(=O)N1CCC(c2ccc(Cl)cc2)CC1

IC50 [1]: 1.7 nM
SMILES: CC(C)[C@@H](NC(=O)CCCc1ccccc1)C(=O)N1CC[C@](O)(c2ccc(Cl)cc2)C(C)(C)C1

IC50 [1]: 20 nM
SMILES: CC(C)[C@@H](NC(=O)[C@@H]1CCC[C@H]1O)C(=O)N1CC[C@](O)(c2ccc(Cl)cc2)C(C)(C)C1 (mixture of isomers)

IC50 [1]: 1600 nM
SMILES: CC(C)[C@@H](NC(=O)[C@@H]1CC[C@H](N)C1)C(=O)N1CC[C@](O)(c2ccc(Cl)cc2)C(C)(C)C1 (mixture of isomers)

inhibition [2]: 50% | Stability [3]: 50% | EC20 [4]: 400 nM | EC60 [4]: 1400 nM | Stability [5]: 47% | IC50 [1]: 1.4 nM | Stability [6]: 26% | inhibition [7]: 52% | Stability [8]: 4%
SMILES: CC(C)[C@@H](NC(=O)C1CCCC1)C(=O)N1CC[C@](O)(c2ccc(Cl)cc2)C(C)(C)C1

inhibition [2]: 64% | EC20 [4]: 1100 nM | EC60 [4]: 2900 nM | IC50 [1]: 18 nM | inhibition [7]: 48%
SMILES: CC(C)[C@@H](NC(=O)c1ccccc1)C(=O)N1CC[C@](O)(c2ccc(Cl)cc2)C(C)(C)C1

inhibition [2]: 9% | Stability [3]: 67% | EC20 [4]: 1800 nM | EC60 [4]: 7400 nM | Stability [5]: 69% | IC50 [1]: 1.6 nM | Stability [6]: 65% | inhibition [7]: 19% | Stability [8]: 21%
SMILES: CC(C)[C@@H](NC(=O)[C@H]1CC[C@@H](O)C1)C(=O)N1CC[C@](O)(c2ccc(Cl)cc2)C(C)(C)C1 (mixture of isomers)

IC50 [1]: > 8330 nM
SMILES: CN[C@]1(c2ccc(Cl)cc2)CCN(C(=O)[C@H](NC(=O)c2ccc(Cl)cc2)C(C)C)CC1(C)C

IC50 [1]: 5.8 nM
SMILES: CC(C)[C@@H](NC(=O)CCc1ccccc1)C(=O)N1CC[C@](O)(c2ccc(Cl)cc2)C(C)(C)C1
